These results are taken from ChEMBL document CHEMBL4765440, “Neuroprotective effects of prenylated flavanones isolated from Dalea species, in vitro and in silico studies” (Eur J Med Chem, 2020).

pIC50: −log10 of the molar value. Calls of active or inactive are those of the source. The rule behind the calls is not given here.

A short description of series [1]: Cytotoxicity against Sprague-Dawley rat primary cerebellar granule neurons assessed as reduction in cell viability measured after 48 hrs by MTT assay. It is filed as tissue-based, Cerebellar granule neurone. To be noted: read-out: LC50.
For series [2], the system named is Cerebellar granule neurone. In words: Neuroprotective activity against H2O2-induced neuronal death in Sprague-Dawley rat primary cerebellar granule neurons assessed as increase in cell viability at 0.5 to 300 uM preincubated for 24 hrs followed by H2O2 addition and measured after 24 hrs by MTT assay. To be noted: dose 0.5-300 µM, time 48.0 hrs. The format is functional, tissue-based. In general terms: Tetrazolium assays rely on reduction of a dye to a coloured formazan, in cell work by metabolically active cells.

Series [3] in a line: (§1) Neuroprotective activity against H2O2-induced neuronal death in Sprague-Dawley rat primary cerebellar granule neurons assessed as increase in cell viability preincubated for 24 hrs followed by H2O2 addition and measured after 24 hrs by MTT assay. It is filed as functional, Cerebellar granule neurone. The conditions noted are these: time 48 hrs.
Series [4] in a line: Neuroprotective activity against H2O2-induced neuronal death in Sprague-Dawley rat primary cerebellar granule neurons assessed as increase in cell viability preincubated for 24 hrs followed by H2O2 addition and measured after 24 hrs by MTT assay relative to control. It is filed as functional, Cerebellar granule neurone. The conditions noted are these: time 48 hrs.
The subject of series [5] is Cerebellar granule neurone. The series can be described thus: Neuroprotective activity against H2O2-induced neuronal death in Sprague-Dawley rat primary cerebellar granule neurons assessed as increase in cell viability at 0.5 to 10 uM preincubated for 24 hrs followed by H2O2 addition and measured after 24 hrs by MTT assay. It is filed as functional, tissue-based. To be noted: dose 0.5-10 µM, time 48.0 hrs.

Series [6] deals with Cerebellar granule neurone. The series can be described thus: Neuroprotective activity against H2O2-induced neuronal death in Sprague-Dawley rat primary cerebellar granule neurons assessed as reduction in nuclear condensation at 0.5 to 300 uM preincubated for 24 hrs followed by H2O2 addition and measured after 24 hrs by Hoechst 33258 staining based confocal immunofluorescence microscopic analysis. The format is functional, tissue-based. To be noted: dose 0.5-300 µM, time 48.0 hrs.

Series [7] has as its system Cerebellar granule neurone. In words: Neuroprotective activity against H2O2-induced neuronal death in Sprague-Dawley rat primary cerebellar granule neurons assessed as reduction in neurite fragmentation at 0.5 to 300 uM preincubated for 24 hrs followed by H2O2 addition and measured after 24 hrs by Hoechst 33258 staining based confocal immunofluorescence microscopic analysis. The format is functional, tissue-based. The conditions noted are these: dose 0.5-300 µM, time 48.0 hrs.

A short description of series [8]: Cytotoxicity against […] cells assessed as reduction in cell viability measured after 24 hrs by neutral red staining based spectrophotometric method. The conditions noted are these: read-out: LC50.
Series [9] in a line: Neuroprotective activity against H2O2-induced cell death in […] cells at 0.5 uM preincubated for 24 hrs followed by H2O2 addition and measured after 24 hrs by neutral red staining based spectrophotometric method relative to control. It is filed as functional. To be noted: time 48 hrs.
The target of series [10] is T1, Acetylcholinesterase (Homo sapiens, UniProt P22303). In words: Inhibition of human erythrocytes AChE using acetylthiocholine iodide as substrate measured after 30 mins by Ellman's method. In general terms: Ellman's reagent forms a yellow product with free thiols.
T1 sequence (P22303 whole entry): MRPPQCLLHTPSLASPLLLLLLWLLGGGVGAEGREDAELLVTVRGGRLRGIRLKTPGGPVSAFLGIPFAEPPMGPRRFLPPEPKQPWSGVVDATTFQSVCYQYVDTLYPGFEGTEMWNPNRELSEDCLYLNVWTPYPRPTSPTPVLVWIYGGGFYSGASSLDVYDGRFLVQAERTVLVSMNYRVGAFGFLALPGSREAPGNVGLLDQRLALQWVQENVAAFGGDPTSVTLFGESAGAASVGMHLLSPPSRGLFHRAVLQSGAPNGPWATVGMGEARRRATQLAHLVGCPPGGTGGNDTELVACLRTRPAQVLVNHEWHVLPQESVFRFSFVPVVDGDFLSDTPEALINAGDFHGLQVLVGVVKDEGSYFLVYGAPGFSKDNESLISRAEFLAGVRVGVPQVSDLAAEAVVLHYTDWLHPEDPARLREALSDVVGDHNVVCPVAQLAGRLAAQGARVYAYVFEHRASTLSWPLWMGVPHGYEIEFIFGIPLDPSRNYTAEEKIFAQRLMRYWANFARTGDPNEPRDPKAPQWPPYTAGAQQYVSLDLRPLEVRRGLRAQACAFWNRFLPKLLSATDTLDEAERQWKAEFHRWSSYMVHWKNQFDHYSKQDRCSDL
The target of series [11] is T1, Acetylcholinesterase. In words: Potency index, ratio of physostigmine IC50 to test compound IC50 for human erythrocytes AChE.
Series [12] relates to Cerebellar granule neurone. The series is described as §1. It is filed as functional. The conditions noted are these: time 48.0 hrs.

Usually pIC50 stands for the negative decadic logarithm of the IC50, by convention in mol/L. A lower pIC50 goes with a high IC50.

Take `C=CC(C)(C)c1cc([C@@H]2CC(=O)c3c(cc(O)c(CC=C(C)C)c3O)O2)c(OC)cc1O`: the CC50 at 48 h in series [1] is 40.7 µM. Further, the outcome in series [2] was inactive.

For the molecule `CC(C)=CCc1c(O)cc(O)c2c1O[C@H](c1ccccc1)CC2=O` [GLABRANIN], the CC50 at 48 h in series [1] came out at 44.5 µM. Moreover, the EC in [3] worked out at 10 µM. For the same molecule, the “%max” value in series [4] turned out to be 20.34%. Moreover, in [5], the result was inactive. For the same molecule, the outcome in series [6] and in series [7] was Active. Besides, the CC50 at 24 h in series [8] came to 27.3 µM. In [9], the Activity is recorded as 31.32%. The same molecule gave a pIC50 in [10] of 8.19. The Ratio IC50 in [11] is 12.

In the case of `CC(C)=CCc1c(O)cc2c(c1O)C(=O)C[C@@H](c1ccc(O)c(O)c1CC=C(C)C)O2`, the CC50 at 48 h in series [1] is over 300 µM. Also, the outcome in series [2] was inactive.

For `O=C1C[C@@H](c2ccccc2)Oc2cc(O)cc(O)c21` [PINOCEMBRIN], the CC50 at 48 h in [1] is 247 µM. In series [2], the outcome was inactive.

As for `C=CC(C)(C)c1cc([C@@H]2CC(=O)c3c(O)cc(O)c(CC=C(C)C)c3O2)c(O)cc1O`, in series [1], the CC50 at 48 h stood at 12.5 µM. In addition, the EC in [3] came out at 5 µM. In addition, the “%max” value in [4] amounted to 16.37%. In series [5], the outcome was inactive. Further, the result in series [6] and in series [7] was Active. The CC50 at 24 h in [8] amounted to 13 µM. Besides, the Activity in series [9] amounted to 51.76%. Moreover, the pIC50 in series [10] is 4.54.

As to `C=CC(C)(C)c1cc([C@@H]2CC(=O)c3c(O)cc(O)c(CC=C(C)C)c3O2)c(OC)cc1O`, the CC50 at 48 h in [1] was over 300 µM. Moreover, the EC in [3] was found to be 200 µM. Also, the Activity entry in series [12] is “Dose-dependent effect”. In series [4], the “%max” value turned out to be 22.3%.
